What all share (type): cell-based, human
One test concerns A549. Kind of test: Crystal Violet proliferation assay, BAL27862-resistant versus parental A549. As to conditions: for Resistance factor (ratio IC50 BAL27862-resistant cell line variant versus IC50 parental cell line): 72 hours, Crystal Violet. The method, then: (§1) BAL27862-resistant sublines of human non-small cell lung cancer (H460 ATCC reference HTB-177; A549 ATCC reference CCL-185), ovarian cancer (SKOV3 ATCC reference HTB-77) and T-cell leukemia (Jurkat ATCC reference TIB-152) cell lines were generated by long-term selection in complete cell culture medium (RPMI-1640 containing 10% FBS; Sigma-Aldrich) by increasing BAL27862 concentrations in a stepwise fashion. […] The resistance factors were determined for the adherent cell lines H460, A549 and SKOV3 by measuring proliferation using the Crystal Violet assay, whereas for the suspension Jurkat cell line cell death was measured using FACS. The resistant sub lines were expanded at the highest tolerated BAL27862 concentration and subsequently frozen and stored in liquid nitrogen.
(§2) A549 (2000 cells/well), H460 (1000 cells/well) and SKOV3 (2000 cells/well) cells were seeded in 96 well plates. […] After medium was removed, cells were fixed and stained by adding 50 μl Crystal Violet stain (0.2% Crystal Violet in 50% Methanol) per well. Plates were incubated for 1 hour at room temperature. Subsequently the stain was decanted and plates were washed 4 times with double-distilled water. Plates were air-dried for several hours. Stain was dissolved by adding 100 μl buffer (0.1 M Tris pH 7.5, 0.2% SDS, 20% Ethanol) per well and shaking the plates. Absorbance at 590 nm was measured using a SpectraMax M2e plate reader (Molecular Devices).
(§3) Antiproliferative IC50 and cell death EC50 values were calculated from concentration response curves using GraphPad Prism software. Resistance factors were calculated as a ratio of the IC50 or EC50 in the resistant line variant versus the IC50 or EC50 in the parental line.

The next test concerns H460. Kind of test: Crystal Violet proliferation assay, BAL27862-resistant versus parental H460. To be noted: for Resistance factor (ratio IC50 BAL27862-resistant cell line variant versus IC50 parental cell line): 72 hours, Crystal Violet. The method, then: as §1, §2, §3
For a further test, the system named is SKOV3. Kind of test: Crystal Violet proliferation assay, BAL27862-resistant versus parental SKOV3. As to conditions: for Resistance factor (ratio IC50 BAL27862-resistant cell line variant versus IC50 parental cell line): 72 hours, Crystal Violet. Here is the method: as §1, §2, §3
In a further test the test system is BAL27862-resistant cells. Kind of test: Response of BAL27862-resistant lines to other microtubule agents (all lines tested). To be noted: all lines tested (Table 1). The method, then: as §1
A549 (2000 cells/well), H460 (1000 cells/well) and SKOV3 (2000 cells/well) cells were seeded in 96 well plates. […] After medium was removed, cells were fixed and stained by adding 50 μl Crystal Violet stain (0.2% Crystal Violet in 50% Methanol) per well. […] Absorbance at 590 nm was measured using a SpectraMax M2e plate reader (Molecular Devices).
as §3

For another test, the system named is A549 NSCLC cells. Kind of test: Immunofluorescent staining of microtubules (anti-alpha tubulin). As to conditions: for Microtubule phenotype of mitotic or G2/M arrested cells: 24 hours, 50 nM BAL27862, 80 nM Compound B, 20 nM Compound C. The method, then: (§4) A549 human non-small cell lung cancer (NSCLC, ATCC reference number CCL-185) cells, HeLa cervical cancer cells (ATCC reference number CCL-2) and SKBR3 breast carcinoma cells (ATCC reference number HTB-30) were seeded at densities of 50% on round microscope coverslips and cultured for 24 hours in RPMI-1640 containing 10% FCS (also referred to as FBS) at 37° C., 5% CO2. Compounds to be tested were dissolved in DMSO. The cell culture medium was replaced with medium containing the diluted compound(s) (paclitaxel, vinblastine, colchicine and nocodazole were purchased from Sigma-Aldrich) or vehicle. After treatment for the times indicated in the Brief Description of the Figures, coverslips were washed and cells were fixed in methanol/acetone (1:1) for 5 minutes at room temperature and subsequently incubated in blocking buffer (0.5% BSA and 0.1% TX-100 in PBS) for 30 minutes at room temperature. Specimens were then incubated with anti-alpha tubulin antibody (Sigma, 1:2000) for 1 hour at room temperature in blocking buffer. After several washing steps cells were incubated with AlexaFluor-488 goat-anti-mouse IgG (Molecular Probes, 1:3000) for 1 hour at room temperature followed by several washing steps with blocking buffer. Specimens were then mounted with ProLong Gold antifade (Molecular Probes) sealed with nail polish and examined with a Leica immunofluorescence microscope. Images were captured with a cooled CCD-camera and processed by ImageJ software.

In the next test the test system is Jurkat. Description: FACS cell death assay, BAL27862-resistant versus parental Jurkat cells expressing GFP. Here is the method: as §1, with “The resistant sub lines were expanded at the highest tolerated BAL27862 concentration and subsequently frozen and stored in liquid nitrogen.” left out
Jurkat cells stably expressing GFP (green fluorescence protein) were incubated with increasing BAL27862 concentrations in culture medium for 72 hours and then analyzed by FACS (excitation at 488 nm, emission at 525 nm). Dying or dead cells, showing a decreased fluorescence activity in comparison to living cells, were quantified (Green fluorescent protein as a novel tool to measure apoptosis and necrosis. Strebel et al, 2001, Cytometry 43(2): 126-133).
as §3

Test [1] concerns HeLa cervical cancer cells. Kind of test: Immunofluorescent staining of microtubules (anti-alpha tubulin). As to conditions: 24 hours, 50 nM BAL27862. Here is the method:
as §4

Test [2] concerns SKBR3 breast cancer cells. Described as above. To be noted: 24 hours, 50 nM BAL27862. Here is the method:
as §4

`COc1cc2c(c(OC)c1OC)-c1ccc(OC)c(=O)cc1[C@@H](NC(C)=O)CC2` [Colchicine, colchicine]: the “Resistance factor (ratio IC50 BAL27862-resistant cell line variant versus IC50 parental cell line)” value amounted to 0.9 in the test on A549, 1.6 in the test on H460, 2.0 in the test on SKOV3 (SKOV3 resistant 1) and 2.8 in the test with SKOV3 (SKOV3 resistant 2).
On the same counts, the results for `COC(=O)Nc1nc2ccc(C(=O)c3cccs3)cc2[nH]1` [Nocodazole, nocodazole] are 1.6, 1.3, 3.6 and 3.9.
Turning to `CC[C@]1(O)C[C@@H]2CN(CCc3c([nH]c4ccccc34)[C@@](C(=O)OC)(c3cc4c(cc3OC)N(C)[C@H]3[C@@](O)(C(=O)OC)[C@H](OC(C)=O)[C@]5(CC)C=CCN6CC[C@]43[C@@H]65)C2)C1` [Vinblastine, vinblastine], the “Resistance factor (ratio IC50 BAL27862-resistant cell line variant versus IC50 parental cell line)” value in the test on A549 was 2.3; in the test on H460, 4.6; in the test with SKOV3 (SKOV3 resistant 1), 15.7.
As for `CC(=O)O[C@H]1C(=O)[C@@]2(C)[C@H]([C@H](OC(=O)c3ccccc3)[C@]3(O)C[C@H](OC(=O)[C@H](O)[C@@H](NC(=O)c4ccccc4)c4ccccc4)C(C)=C1C3(C)C)[C@]1(OC(C)=O)CO[C@@H]1C[C@@H]2O` [Paclitaxel, paclitaxel], the “Resistance factor (ratio IC50 BAL27862-resistant cell line variant versus IC50 parental cell line)” value in the test with A549 worked out at 0.06; in the test on H460, 0.3; in the test on SKOV3 (SKOV3 resistant 1), 0.4; with SKOV3 (SKOV3 resistant 2), 0.5. Also, the “Sensitivity of BAL27862-resistant lines compared to parental lines” value in the test on BAL27862-resistant cells was “increased sensitivity”.
In the case of `N#CCCNc1nonc1-c1nc2ccccc2n1CC(=O)c1ccc(N)nc1` [Compound C, 3-(4-{1-[2-(6-Amino-pyridin-3-yl)-2-oxo-ethyl]-1H-benzoimidazol-2-yl}-furazan-3-ylamino)-propionitrile], in the test with A549 NSCLC cells, the “Microtubule phenotype of mitotic or G2/M arrested cells” value is “dot-like structures”.
The same measure, in the same setting: as for `Nc1ccc(C(=O)Cn2c(-c3nonc3N)nc3ccccc32)cc1` [Compound B, 2-[2-(4-Amino-furazan-3-yl)-benzoimidazol-1-yl]-1-(4-amino-phenyl)-ethanone], the entry is “dot-like structures”.
For the compound `N#CCCNc1nonc1-c1nc2ccccc2n1CC(=O)c1ccc(N)cc1` [BAL27862, 3-(4-{1-[2-(4-Amino-phenyl)-2-oxo-ethyl]-1H-benzoimidazol-2-yl}-furazan-3-ylamino)-propionitrile], the “Resistance factor versus parental line (based on IC50)” value in the test with A549 is recorded as 3.0 fold; with H460, 5.3 fold; in the test with SKOV3 (SKOV3 resistant 1) it was 7.6 fold; with SKOV3 (SKOV3 resistant 2) it was 11.6 fold. In addition, the “Resistance factor (ratio IC50 BAL27862-resistant cell line variant versus IC50 parental cell line)” value stood at 3.0 in the test on A549, 5.3 in the test with H460, 7.6 in the test with SKOV3 (SKOV3 resistant 1) and 11.6 in the test on SKOV3 (SKOV3 resistant 2). For the same compound, the “Resistance factor versus parental line (based on EC50)” value in the test on Jurkat is 22.5 fold. For the same compound, the “Resistance factor (ratio EC50 BAL27862-resistant cell line variant versus EC50 parental cell line)” value in the test on Jurkat (72 hours, cell death by FACS) amounted to 22.5. Also, the “Microtubule phenotype on combination treatment” value in the test with A549 NSCLC cells (24 hours vinblastine, colchicine, paclitaxel or nocodazole, BAL27862 added for the last 4 hours) was “disruption of the microtubule structures”. Further, the “Microtubule phenotype of mitotic or G2/M arrested cells” value (in the test with A549 NSCLC cells; in test [1]; in test [2]) was “dot-like structures” each time.

Source of the values: US10067120B2, “Use of acetylated tubulin as a biomarker of drug response to furazanobenzimidazoles” (Basilea Pharmaceutica AG, priority 2011, dated 2018).
